Data on 1 molecule can be found in patent US20060062739A1 (priority 2004, published 2006).

Data set [1] deals with subjects with severe asthma treated with oral corticosteroids. The experiment in a line: Lidocaine for reducing concurrent corticosteroids in steroid dependent severe asthma (Example 7). The data set is classed as in vivo, human. The following applies: interim, all patients past visit 7.
The test system of data set [2] is mild to moderate asthma patients. As to conditions: human, in vivo.

In the case of `CCN(CC)CC(=O)Nc1c(C)cccc1C` [lidocaine, acetamide 2-(diethylamino)-N-(2,6-dimethylphenyl)], the “relation of reported adverse events to treatment” value in data set [1] is “None of the reported adverse events were thought to be related to the lidocaine treatment”. Also, in data set [2], the “bronchospasm (decrease in FEV1 >20% 30 min after aerosol administration)” value was “no reports of bronchospasm”; the “loss of gag reflex” value is recorded as “No loss of gag reflex was reported”; the “tolerability and safety overall” value is “no significant adverse events related to study drug”; the “tracheal aspiration of food or liquid” value is reported as “No case of tracheal aspiration of food or liquid was reported”.
